Test results: patent US20080038228A1, “Method” (Danisco A/S, priority 2003, published 2008)
Entries after “also recorded” stand apart in the source; their conditions may differ.

Key:
[1] = test system: indomethacin-induced gastrointestinal damage; test: Rat model of indomethacin-induced gastrointestinal damage, damage area (Experiment 3); type: in vivo; conditions: male Wistar rats
Text: (§1) A previously described rat model was used to study indomethacin-induced gastrointestinal damage (see Meddings and Gibbons, Gastroenterology 1998; 114:83-92). Briefly, male Wistar rats were used and ten rats were included in each treatment group. Five different treatments were included: control group with no indomethacin treatment, indomethacin control group with no intervention treatment, indomethacin with 10^8 Bifidobacterium per rat, indomethacin with 10^10 Bifidobacterium per rat, and indomethacin with betaine (200 mg/rat). A single dose of indomethacin (10 mg/kg) was given p.o. preceded by a seven-day intervention with or without Bifidobacterium or betaine. In addition, a mixture of sucrose, lactulose, mannitol and sucralose was given p.o to measure gastrointestinal (GI) permeability. Urine samples were obtained at 16 hours after the challenge with indomethacin and prior to sacrificing the animals. Mucosa of the stomach and the intestine were examined by a pathologist and tissue samples of healthy-appearing mucosa for RNA isolation were collected from stomach, proximal and distal small intestine, caecum and proximal and distal colon. RNA was isolated and expression of cyclooxygenase-1 and -2 (COX-1 and COX-2, respectively) were determined by QPCR.

[2] = test system: indomethacin-induced gastrointestinal damage; test: Combined live Bifidobacterium and betaine in indomethacin-challenged rats, damage area (Experiment 4); type: in vivo, rat; conditions: Experiment 4, indomethacin-challenged male Wistar rats; Bifidobacterium 10^10 and betaine 200 mg daily per animal; preliminary investigations
Method: Male Wistar rats as described previously in Experiment 3 above are split into the following treatment groups: a control, an indomethacin challenge group as a control, and treatment groups 3-5, which receive intervention treatment by live Bifidobacterium (10^10 daily dose per animal) and betaine (200 mg of daily dose per animal) either separately or in combination. Damage is determined from the sacrificed rats only.

[3] = test system: gastrointestinal (GI) permeability; test: Gastrointestinal permeability, urine concentrations of marker sugars in indomethacin-challenged rats (Experiment 3); type: in vivo, rat; conditions: male Wistar rats, single dose 10 mg/kg p.o., urine at 16 hours
Text: as §1

[4] = test system: cyclooxygenase 1 gene expression in Caco2 cells; test: Caco-2 cell-based exposure test, Cox-1 gene expression (Experiment 1: selected metabolites and co-cultured bacterium); parameters: species or system human; conditions: 24 hour treatment, metabolites 5 mM, bacterium co-cultured in membrane insert
Method: The human colorectal carcinoma cell line Caco-2 was grown at 37° C. and 5% CO2 in serum-free Dulbeccos' MEM (Gibco) supplemented with 1 mM sodium pyruvate (Gibco) and 1× non-essential amino acids (Gibco) (DMEM). When grown without added bacteria, 20 Uml^−1 penicillin (Gibco), 20 μgml^−1 streptomycin (Gibco) and 0.5 μgml^−1 amphotericin (Gibco) were added to the medium. Bifidobacterium sp. 420 was grown anaerobically for 48 hours at 37° C. in a BIF medium consisting of 10 gl^−1 tryptic digest of casein peptone; 5 gl^−1 meat extract; 5 gl^−1 yeast extract; 10 gl^−1 glucose; 3 gl^−1 K2HPO4; 0.1% (volume/volume) Tween 80; 1% ascorbic acid and 0.05% cysteine-HCl; pH 6.8. 2 ml of logarithmic phase culture was centrifuged at 4000 rpm for 3 minutes. The cell pellet was suspended in 1.6 ml DMEM. […]
(§2) After 24 hour exposure, media and culture inserts were discarded, cells were lysed and RNA was extracted using Qiagen's (Germany) RNEasy Mini Kit DNA was digested using the same manufacturer's RNase free DNase. […] Cox-1/Cox-2 expression patterns were determined by real-time quantitative TaqMan PCR (Holland et al., 1991 Proc. Natl. Acad. Sci. USA August 15; 88(16): 7276-80; and Livak and Scmittgen, 2001 Methods December; 25(4):402-8) using the default settings of an ABIPrism 7000 Sequence Detection instrument (Applied Biosystems).

[5] = test system: cyclooxygenase 2 gene expression in Caco2 cells; test: Caco-2 cell-based exposure test, Cox-2 gene expression (Experiment 1: selected metabolites and co-cultured bacterium); parameters: species or system human; conditions: 24 hour treatment, metabolites 5 mM, bacterium co-cultured in membrane insert
Method: The human colorectal carcinoma cell line Caco-2 was grown at 37° C. and 5% CO2 in serum-free Dulbeccos' MEM (Gibco) supplemented with 1 mM sodium pyruvate (Gibco) and 1× non-essential amino acids (Gibco) (DMEM). When grown without added bacteria, 20 Uml^−1 penicillin (Gibco), 20 μgml^−1 streptomycin (Gibco) and 0.5 μgml^−1 amphotericin (Gibco) were added to the medium. Bifidobacterium sp. 420 was grown anaerobically for 48 hours at 37° C. in a BIF medium consisting of 10 gl^−1 tryptic digest of casein peptone; 5 gl^−1 meat extract; 5 gl^−1 yeast extract; 10 gl^−1 glucose; 3 gl^−1 K2HPO4; 0.1% (volume/volume) Tween 80; 1% ascorbic acid and 0.05% cysteine-HCl; pH 6.8. 2 ml of logarithmic phase culture was centrifuged at 4000 rpm for 3 minutes. The cell pellet was suspended in 1.6 ml DMEM. The production of short chain organic acids by the bacterium was tested from fresh and conditioned bifidobacterium medium using gas chromatography.
(§3) To determine the effects of various treatments on the Cox-1/Cox-2 expression pattern, approximately 500 000 Caco-2 cells/well were seeded on 24-well cell culture plates. The cells were allowed to attach for 24 hours, after which the media were replaced by fresh media (total volume 1 ml/well) containing either no other added components than the ones described above (control treatments, with and without antibiotics) or antibiotic supplemented media with 5 mM sodium butyrate; 5 mM sodium propionate; 5 mM sodium acetate or 5 mM sodium lactate. In addition, wells were prepared that contained no antibiotics but a 0.2 μm anopore membrane tissue culture insert (Nunc, Denmark) into which 100 μl of the bacterial suspension described above was added.
After 24 hour exposure, media and culture inserts were discarded, cells were lysed and RNA was extracted using Qiagen's (Germany) RNEasy Mini Kit DNA was digested using the same manufacturer's RNase free DNase. Reverse transcription was performed using the High Capacity cDNA Archive Kit (Applied Biosystems, USA) according to the instructions provided by the manufacturer. Cox-1/Cox-2 expression patterns were determined by real-time quantitative TaqMan PCR (Holland et al., 1991 Proc. Natl. Acad. Sci. USA August 15; 88(16): 7276-80; and Livak and Scmittgen, 2001 Methods December; 25(4):402-8) using the default settings of an ABIPrism 7000 Sequence Detection instrument (Applied Biosystems).

[6] = test system: Cox-1/Cox-2 expression pattern in Caco-2 cells; test: Cox-1/Cox-2 ratio and expression pattern in Caco-2 cells; type: cell-based, human; conditions: Experiment 1, Caco-2 cells, 24 hour exposure
Method: as §3, with “In addition, wells were prepared that contained no antibiotics but a 0.2 μm anopore membrane tissue culture insert (Nunc, Denmark) into which 100 μl of the bacterial suspension described above was added.” left out
as §2
Two bifidobacteria (Bifidobacterium sp. 420 and Bifidobacterium longum 913) were cultured as described in Experiment 1. […] Bacterial growth was stopped by chilling confluent cultures on ice, after which cell densities were determined by flow cytometry (FACS Calibur, Becton Dickinson). […]

Cox-2 expression = conditions: according to prior art; cited from earlier work

Compound | Cox-1 gene expression level, fold change in relation to the control [4] | Cox-2 gene expression level, fold change in relation to the control [5] | Cox-1/Cox-2 ratio / expression pattern (FIG. 1) [6] | effect on Cox-2 expression (Cox-2 expression) | also measured
C[N+](C)(C)CC(=O)[O-] [Betaine, trimethylglycine] |  |  |  |  | pathological damage area ([1]; seven-day intervention, then indomethacin 10 mg/kg p.o.): tendency to decrease; also recorded: somewhat reduced; damage area in the gastrointestinal tract [2]: tends to decrease
COc1ccc2c(c1)c(CC(=O)O)c(C)n2C(=O)c1ccc(Cl)cc1 [Indomethacin, indomethacin] |  |  |  |  | gross pathological changes (ulceration) ([1]; single dose 10 mg/kg p.o.): induced ulceration mainly to fundic stomach, but also to pyloric stomach; urine concentrations of marker sugars after the challenge [3]: significant increase
CC(=O)[O-].[Na+] [acetate, sodium acetate] | 2.08 fold change | 1.17 fold change |  |  | 
CCCC(=O)[O-].[Na+] [butyrate, sodium butyrate] |  | 0.15 fold change | increase | lowering effect | 
CC(O)C(=O)[O-].[Na+] (centres unmarked) [lactate, sodium lactate] | 0.91 fold change | 0.74 fold change |  |  | 
CCC(=O)[O-].[Na+] [propionate, sodium propionate] |  | 0.36 fold change | increase | lowering effect | 
